Where “and” joins values, the source holds several entries; their conditions need not be identical. Equal values may be shown once. Inconclusive results and toxic doses are left out.
Tested on: BDF1 mice, B16 melanoma ip, median survival T/C
Assay: NCI In Vivo Anticancer Drug Screen. Data for tumor model B16 Melanoma (intraperitoneal) in B6D2F1 (BDF1) mice
Conditions: endpoint: median survival time, higher = longer survival
Summary of the method: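 In this screen, activity was judged from survival or tumor size in treated versus vehicle-treated tumor-bearing mice, reported as T/C.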

[1] = dose: 1.0 mg/kg/injection, schedule: Q01DX009 (ip), vehicle: saline
[2] = dose: 2.0 mg/kg/injection, schedule: Q01DX009 (ip), vehicle: saline
[3] = dose: 4.0 mg/kg/injection, schedule: Q01DX009 (ip), vehicle: saline
[4] = dose: 100.0 mg/kg/injection, schedule: Q01DX009 (ip), vehicle: Klucel (hydroxypropylcellulose) (HPC)
[5] = dose: 200.0 mg/kg/injection, schedule: Q01DX009 (ip), vehicle: Klucel (hydroxypropylcellulose) (HPC)

In the case of `C1CN(P2(N3CC3)=NP(N3CC3)(N3CC3)=NP(N3CC3)(N3CC3)=N2)CCO1` (stereo not given), the T/C (dose: 0.25 mg/kg/injection, schedule: Q01DX009 (ip), vehicle: saline) is reported as 101 % of control, the T/C (dose: 0.5 mg/kg/injection, schedule: Q01DX009 (ip), vehicle: saline) is reported as 117 % of control and the T/C [1] is reported as 117 % of control. For the same molecule, the T/C (dose: 1.0 mg/kg/injection, schedule: Q02DX009 (ip), vehicle: saline) was 98 % of control and 104 % of control, the T/C [2] was 120 % of control and the T/C (dose: 2.0 mg/kg/injection, schedule: Q02DX009 (ip), vehicle: saline) was 98 % of control and 121 % of control. For the same molecule, the T/C (dose: 3.13 mg/kg/injection, schedule: Q01DX009 (ip), vehicle: saline) was 111 % of control and 112 % of control, the T/C (dose: 3.13 mg/kg/injection, schedule: Q02DX009 (ip), vehicle: saline) was 110 % of control and 115 % of control and the T/C [3] was 116 % of control. For the same molecule, the T/C (dose: 4.0 mg/kg/injection, schedule: Q02DX009 (ip), vehicle: saline) was 106 % of control and 122 % of control, the T/C (dose: 6.25 mg/kg/injection, schedule: Q02DX009 (ip), vehicle: saline) was 93 % of control and the T/C (dose: 8.0 mg/kg/injection, schedule: Q02DX009 (ip), vehicle: saline) was 108 % of control. The T/C (dose: 12.5 mg/kg/injection, schedule: Q02DX009 (ip), vehicle: saline) was 154 % of control and 156 % of control, the T/C (dose: 16.0 mg/kg/injection, schedule: Q02DX009 (ip), vehicle: saline) was 151 % of control and 171 % of control and the T/C (dose: 25.0 mg/kg/injection, schedule: Q02DX009 (ip), vehicle: saline) was 164 % of control and 186 % of control and 200 % of control.
With `Nc1ccn(C2CC(O)C(CO)O2)c(=O)n1` (stereo not given) the T/C (dose: 9.38 mg/kg/injection, schedule: Q01DX009 (ip), vehicle: water) was 105 % of control, the T/C (dose: 18.75 mg/kg/injection, schedule: Q01DX009 (ip), vehicle: water) was 101 % of control and the T/C (dose: 37.5 mg/kg/injection, schedule: Q01DX009 (ip), vehicle: water) was 100 % of control. The T/C (dose: 75.0 mg/kg/injection, schedule: Q01DX009 (ip), vehicle: water) was 99 % of control and the T/C (dose: 150.0 mg/kg/injection, schedule: Q01DX009 (ip), vehicle: water) was 109 % of control.
In the case of `C[n+]1c(/C=C\C=C\N2CCCCC2)sc2ccccc21`, the T/C (dose: 0.06 mg/kg/injection, schedule: Q01DX009 (ip), vehicle: Klucel (hydroxypropylcellulose) (HPC)) is reported as 101 % of control, the T/C (dose: 0.12 mg/kg/injection, schedule: Q01DX009 (ip), vehicle: Klucel (hydroxypropylcellulose) (HPC)) is reported as 105 % of control and the T/C (dose: 0.25 mg/kg/injection, schedule: Q01DX009 (ip), vehicle: Klucel (hydroxypropylcellulose) (HPC)) is reported as 101 % of control. The T/C (dose: 0.5 mg/kg/injection, schedule: Q01DX009 (ip), vehicle: Klucel (hydroxypropylcellulose) (HPC)) was 95 % of control, the T/C (dose: 0.63 mg/kg/injection, schedule: Q01DX009 (ip), vehicle: Klucel (hydroxypropylcellulose) (HPC)) was 103 % of control and the T/C (dose: 1.0 mg/kg/injection, schedule: Q01DX009 (ip), vehicle: Klucel (hydroxypropylcellulose) (HPC)) was 101 % of control. For the same molecule, the T/C (dose: 1.25 mg/kg/injection, schedule: Q01DX009 (ip), vehicle: Klucel (hydroxypropylcellulose) (HPC)) was 101 % of control, the T/C (dose: 2.0 mg/kg/injection, schedule: Q01DX009 (ip), vehicle: Klucel (hydroxypropylcellulose) (HPC)) was 105 % of control and the T/C (dose: 2.5 mg/kg/injection, schedule: Q01DX009 (ip), vehicle: Klucel (hydroxypropylcellulose) (HPC)) was 109 % of control.
With `CC(C)C(N)C(=O)Nc1nncs1` (stereo not given) the T/C (dose: 12.5 mg/kg/injection, schedule: Q01DX009 (ip), vehicle: saline) was 103 % of control, the T/C (dose: 25.0 mg/kg/injection, schedule: Q01DX009 (ip), vehicle: saline) was 114 % of control and the T/C (dose: 50.0 mg/kg/injection, schedule: Q01DX009 (ip), vehicle: saline) was 108 % of control. For the same molecule, the T/C (dose: 100.0 mg/kg/injection, schedule: Q01DX009 (ip), vehicle: saline) was 102 % of control.
For `CCOC(=O)NNC(N)=S`, the T/C [4] was 100 % of control, the T/C [5] was 93 % of control and the T/C (dose: 400.0 mg/kg/injection, schedule: Q01DX009 (ip), vehicle: Klucel (hydroxypropylcellulose) (HPC)) was 93 % of control.
For `COc1ccc(C(=O)/C=C/c2ccc3c(c2)OCO3)cc1OC`, the T/C [4] was 96 % of control and the T/C [5] was 93 % of control.
`COC(=O)C(C(=O)OC)C(Br)(OC(C)=O)OC(C)=O` was tested, and the T/C (dose: 50.0 mg/kg/injection, schedule: Q04DX003 (ip), vehicle: saline with Tween-80) was 105 % of control, the T/C (dose: 100.0 mg/kg/injection, schedule: Q04DX003 (ip), vehicle: saline with Tween-80) was 95 % of control and the T/C (dose: 200.0 mg/kg/injection, schedule: Q04DX003 (ip), vehicle: saline with Tween-80) was 99 % of control. The T/C (dose: 400.0 mg/kg/injection, schedule: Q04DX003 (ip), vehicle: saline with Tween-80) was 103 % of control.
`CC(=O)/C(C)=C\c1ccccc1` was tested, and the T/C (dose: 100.0 mg/kg/injection, schedule: Q01DX009 (ip), vehicle: saline with Tween-80) was 102 % of control, the T/C (dose: 200.0 mg/kg/injection, schedule: Q01DX009 (ip), vehicle: saline with Tween-80) was 95 % of control and the T/C (dose: 400.0 mg/kg/injection, schedule: Q01DX009 (ip), vehicle: saline with Tween-80) was 86 % of control.
`O=C(O)c1ccccc1C(=O)c1ccc(CBr)cc1` was tested, and the T/C (dose: 0.05 mg/kg/injection, schedule: Q01DX009 (ip), vehicle: saline) was 100 % of control, the T/C (dose: 0.1 mg/kg/injection, schedule: Q01DX009 (ip), vehicle: saline) was 97 % of control and the T/C (dose: 0.2 mg/kg/injection, schedule: Q01DX009 (ip), vehicle: saline) was 100 % of control. For the same molecule, the T/C (dose: 0.38 mg/kg/injection, schedule: Q04DX003 (ip), vehicle: saline with Tween-80) was 91 % of control, the T/C (dose: 0.75 mg/kg/injection, schedule: Q04DX003 (ip), vehicle: saline with Tween-80) was 95 % of control and the T/C (dose: 1.5 mg/kg/injection, schedule: Q01DX009 (ip), vehicle: saline with Tween-80) was 87 % of control. The T/C (dose: 1.5 mg/kg/injection, schedule: Q04DX003 (ip), vehicle: saline with Tween-80) was 100 % of control and the T/C (dose: 1.56 mg/kg/injection, schedule: Q04DX003 (ip), vehicle: saline with Tween-80) was 100 % of control.
For `CC[C@@]1(O)C[C@H](OC2CC(N(C)C)C(OC3CC(O)C(OC4CC(O)C(O)C(C)O4)C(C)O3)C(C)O2)c2c(cc3c(c2O)C(=O)c2c(O)ccc(O)c2C3=O)[C@H]1C(=O)OC` (stereo not given in full), the T/C (dose: 0.03 mg/kg/injection, schedule: Q01DX001 (ip), vehicle: saline) was 105 % of control, the T/C (dose: 0.05 mg/kg/injection, schedule: Q01DX001 (ip), vehicle: saline) was 118 % of control and the T/C (dose: 0.1 mg/kg/injection, schedule: Q01DX001 (ip), vehicle: saline) was 119 % of control. For the same molecule, the T/C (dose: 0.25 mg/kg/injection, schedule: Q01DX009 (ip), vehicle: other) was 161 % of control, the T/C (dose: 0.5 mg/kg/injection, schedule: Q01DX009 (ip), vehicle: other) was 161 % of control and the T/C (dose: 0.8 mg/kg/injection, schedule: Q01DX001 (ip), vehicle: saline) was 163 % of control. The T/C (dose: 1.0 mg/kg/injection, schedule: Q01DX009 (ip), vehicle: alcohol) was 210 % of control, the T/C (dose: 1.0 mg/kg/injection, schedule: Q01DX009 (ip), vehicle: other) was 188 % of control and the T/C (dose: 1.6 mg/kg/injection, schedule: Q01DX001 (ip), vehicle: saline) was 168 % of control. The T/C (dose: 2.0 mg/kg/injection, schedule: Q01DX009 (ip), vehicle: alcohol) was 216 % of control, the T/C (dose: 2.16 mg/kg/injection, schedule: Q01DX001 (ip), vehicle: water) was 106 % of control and the T/C (dose: 3.6 mg/kg/injection, schedule: Q01DX001 (ip), vehicle: water) was 97 % of control. For the same molecule, the T/C (dose: 6.0 mg/kg/injection, schedule: Q01DX001 (ip), vehicle: water) was 100 % of control and the T/C (dose: 10.0 mg/kg/injection, schedule: Q01DX001 (ip), vehicle: water) was 89 % of control.
`COc1ccc2c(oc(=O)c3c(Cl)nc(C)c(C)c32)c1OC` was tested, and the T/C (dose: 25.0 mg/kg/injection, schedule: Q01DX009 (ip), vehicle: Klucel (hydroxypropylcellulose) (HPC)) was 105 % of control, the T/C (dose: 50.0 mg/kg/injection, schedule: Q01DX009 (ip), vehicle: Klucel (hydroxypropylcellulose) (HPC)) was 98 % of control and the T/C [4] was 97 % of control. The T/C [5] was 94 % of control.
In the case of `CC1(c2ccc(Cl)cc2)OC(=O)C(=Cc2ccc([N+](=O)[O-])s2)C(=O)O1` (stereo not given), the T/C (dose: 6.25 mg/kg/injection, schedule: Q01DX009 (ip), vehicle: saline with Tween-80) is reported as 92 % of control and the T/C (dose: 12.5 mg/kg/injection, schedule: Q01DX009 (ip), vehicle: saline with Tween-80) is reported as 87 % of control.
For `CCCCCC(O)C1C(=O)OC(C)C(O)/C=C/C=C/C=C/C=C/C=C(\C)C(O)C(O)C(O)CC(O)CC(O)CC(O)CC(O)CC1O` (stereo not given), the T/C (dose: 0.78 mg/kg/injection, schedule: Q01DX009 (ip), vehicle: saline) was 124 % of control, the T/C [1] was 116 % of control and the T/C (dose: 1.56 mg/kg/injection, schedule: Q01DX009 (ip), vehicle: saline) was 119 % of control. For the same molecule, the T/C (dose: 1.78 mg/kg/injection, schedule: Q01DX009 (ip), vehicle: saline) was 122 % of control, the T/C [2] was 123 % of control and the T/C (dose: 3.12 mg/kg/injection, schedule: Q01DX009 (ip), vehicle: saline) was 103 % of control. For the same molecule, the T/C [3] was 154 % of control.

Reference: PubChem BioAssay AID192 (DTP/NCI, 2004)
